Literature values as cited in patent US7273620B1, “Triggered release of liposomal drugs following mixing of cationic and anionic liposomes” (University of British Columbia, priority 2002, dated 2007).

Conditions: from LUV; depends on acyl chain length of ceramide anchor

1-O-(2′-(ω-methoxypolyethylene-glycol)succinoyl)-2-N-myristoylsphyngosine [PEG-CerC14]
dissociation rate of PEG-Ceramide: 1.2 h
